As a reminder, the inhibition is the change of the read-out against control, counted positive when it falls. In general, IC50 refers to the point on the concentration scale where inhibition reaches its midpoint.

This note sets out measurements from ChEMBL document CHEMBL4385634, “Melanogenic inhibitory effects of Triangularin in B16F0 melanoma cells, in vitro and molecular docking studies” (Bioorg Med Chem, 2019).

The target of data set [1] is T1, Tyrosinase (Mus musculus) (UniProt P11344).
T1 sequence (whole entry): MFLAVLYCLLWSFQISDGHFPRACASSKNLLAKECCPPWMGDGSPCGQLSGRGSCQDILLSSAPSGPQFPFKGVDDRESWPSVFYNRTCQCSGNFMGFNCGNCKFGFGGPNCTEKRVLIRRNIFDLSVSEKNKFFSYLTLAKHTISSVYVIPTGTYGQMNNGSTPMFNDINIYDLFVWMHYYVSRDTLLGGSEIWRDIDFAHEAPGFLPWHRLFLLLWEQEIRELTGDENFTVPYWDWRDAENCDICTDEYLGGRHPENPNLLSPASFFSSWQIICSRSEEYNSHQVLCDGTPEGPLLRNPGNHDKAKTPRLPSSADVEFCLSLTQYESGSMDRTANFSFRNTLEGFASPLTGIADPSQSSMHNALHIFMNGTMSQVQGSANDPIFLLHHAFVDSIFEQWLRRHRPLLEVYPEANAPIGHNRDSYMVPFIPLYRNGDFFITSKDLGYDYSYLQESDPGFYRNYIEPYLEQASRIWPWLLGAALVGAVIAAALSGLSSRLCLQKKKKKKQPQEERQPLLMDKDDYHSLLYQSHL
Put plainly: Inhibition of intracellular tyrosinase in mouse B16F0 cells at 10 uM using L-DOPA as substrate preincubated with compound followed by substrate addition and measured after 20 mins by UV-Visible spectrophotometric analysis relative to control. It counts as cell-based.

Data set [2] in a line: (§1) Cytotoxicity against mouse B16F0 cells incubated for 24 hrs by MTT assay. It counts as cell-based, B16-F0. The conditions noted are these: B16F0 cells, read-out: MNCC. Background: Formazan colour is commonly taken as a measure of viable cells.
Data set [3] relates to B16-F0. The data set is described as §1. It counts as cell-based. The conditions noted are these: b16-f0, 24 h.
Data set [4] addresses T1, Tyrosinase (Mus musculus). Put plainly: Potency index, ratio of compound effect to KA effect for inhibition of intracellular tyrosinase in mouse B16F0 cells using L-DOPA as substrate preincubated with compound followed by substrate addition and measured after 20 mins by UV-Visible spectrophotometric analysis. It counts as cell-based.
Data set [5] has as its target T1, Tyrosinase (Mus musculus). Put plainly: Potency index, ratio of IC50 for KA to IC50 for test compound for inhibition of tyrosinase in mouse B16F0 cells assessed as reduction in melanin production incubated for 24 hrs by spectrophotometric analysis. It counts as cell-based.
Data set [6] concerns the target T2, Tyrosinase (Agaricus bisporus, UniProt O42713).
T2 sequence (O42713 whole entry): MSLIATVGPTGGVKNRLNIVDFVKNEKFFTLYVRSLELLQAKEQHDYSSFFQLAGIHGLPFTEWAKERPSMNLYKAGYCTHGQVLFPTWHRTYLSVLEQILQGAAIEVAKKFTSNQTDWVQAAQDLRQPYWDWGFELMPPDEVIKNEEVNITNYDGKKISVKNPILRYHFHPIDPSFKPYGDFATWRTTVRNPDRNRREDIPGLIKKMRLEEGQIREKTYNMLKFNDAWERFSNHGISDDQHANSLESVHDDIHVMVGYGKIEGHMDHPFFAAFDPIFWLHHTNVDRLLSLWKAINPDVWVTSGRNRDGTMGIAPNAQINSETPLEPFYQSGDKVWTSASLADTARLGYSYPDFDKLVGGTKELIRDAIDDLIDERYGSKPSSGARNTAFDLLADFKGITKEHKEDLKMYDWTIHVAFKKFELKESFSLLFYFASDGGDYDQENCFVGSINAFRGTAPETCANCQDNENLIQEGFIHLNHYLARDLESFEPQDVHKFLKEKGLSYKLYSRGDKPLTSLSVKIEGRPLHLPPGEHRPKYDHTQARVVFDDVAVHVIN
Kind of data set: Inhibition of mushroom tyrosinase diphenolase activity using L-dopa as substrate preincubated for 10 mins followed by substrate addition by UV-Visible spectrophotometric analysis.

Data set [7] concerns the target T1, Tyrosinase (Mus musculus). Put plainly: Potency index, ratio of compound effect to KA effect for inhibition of tyrosinase in mouse B16F0 cells at 10 uM using L-DOPA as substrate. It counts as cell-based.
In data set [8] the target is T1, Tyrosinase (Mus musculus). Kind of data set: Inhibition of intracellular tyrosinase in mouse B16F0 cells at 100 uM using L-DOPA as substrate preincubated with compound followed by substrate addition and measured after 20 mins by UV-Visible spectrophotometric analysis relative to control. Format: cell-based.
Data set [9] concerns the target T1, Tyrosinase (Mus musculus). Kind of data set: Inhibition of intracellular tyrosinase in mouse B16F0 cells at 5 uM using L-DOPA as substrate preincubated with compound followed by substrate addition and measured after 20 mins by UV-Visible spectrophotometric analysis relative to control. Format: cell-based.
The target of data set [10] is T1, Tyrosinase (Mus musculus). Put plainly: Inhibition of intracellular tyrosinase in mouse B16F0 cells at 50 uM using L-DOPA as substrate preincubated with compound followed by substrate addition and measured after 20 mins by UV-Visible spectrophotometric analysis relative to control. It counts as cell-based.
Data set [11] has as its target T3, Tyrosinase (Agaricus bisporus) (UniProt O42713).
T3 sequence (whole entry): T2 sequence (O42713 whole entry)
Kind of data set: Potency index, ratio of IC50 for KA to IC50 for test compound for inhibition of mushroom tyrosinase diphenolase activity using L-dopa as substrate preincubated for 10 mins followed by substrate addition by UV-Visible spectrophotometric analysis.

In data set [12] the target is T1, Tyrosinase (Mus musculus). Put plainly: Potency index, ratio of IC50 for KA to IC50 for test compound for inhibition of tyrosinase in mouse B16F0 cells using L-DOPA as substrate by UV-Visible spectrophotometric analysis. It counts as cell-based.
The target in data set [13] is T1, Tyrosinase (Mus musculus). Kind of data set: Inhibition of intracellular tyrosinase in mouse B16F0 cells at 1 uM using L-DOPA as substrate preincubated with compound followed by substrate addition and measured after 20 mins by UV-Visible spectrophotometric analysis relative to control. It counts as cell-based.
Data set [14] deals with T1, Tyrosinase (Mus musculus). Kind of data set: Inhibition of intracellular tyrosinase in mouse B16F0 cells at 25 uM using L-DOPA as substrate preincubated with compound followed by substrate addition and measured after 20 mins by UV-Visible spectrophotometric analysis relative to control. Format: cell-based.
Data set [15] deals with T4, Tyrosinase (Mus musculus, UniProt P11344).
T4 sequence (P11344 whole entry): T1 sequence (whole entry)
Description: Inhibition of tyrosinase in mouse B16F0 cells using L-DOPA as substrate by UV-Visible spectrophotometric analysis

Data set [16] concerns the target T4, Tyrosinase. Put plainly: Inhibition of tyrosinase in mouse B16F0 cells assessed as reduction in melanin production incubated for 24 hrs by spectrophotometric analysis. It counts as cell-based.
Data set [17] deals with T1, Tyrosinase (Mus musculus). Put plainly: Inhibition of intracellular tyrosinase in mouse B16F0 cells using L-DOPA as substrate preincubated with compound followed by substrate addition and measured after 20 mins by UV-Visible spectrophotometric analysis relative to control. It counts as cell-based.

In the case of `COc1cc(O)c(C(=O)/C=C/c2ccccc2)c(O)c1C`, the inhibition turned out to be 7.8% in data set [1]; 20.1% in data set [8]; 6.1% in [9]; 16.2% in [10]; 3.9% in [13]; 13% in [14]. In addition, the inhibition result in [17] is “Dose-dependent effect”. In data set [2], the MNTC at 24 h is 100 µM. Besides, in data set [3], the Activity entry was “Dose-dependent effect”. Further, the Ratio is 5 in [4], 6 in [7] and 3 in [12]. The Ratio IC50 came to 8 in [5] and 2 in data set [11]. For the same compound, the IC50 in [6] amounted to 63.1 µM; in data set [15] it was 30.1 µM; in [16], 25 µM.
